Data published in ChEMBL document CHEMBL4706619, “Synthesis and identification of a novel derivative of salidroside as a selective, competitive inhibitor of monoamine oxidase B with enhanced neuroprotective properties” (Eur J Med Chem, 2021).
The source made the active and inactive calls. The rule behind the calls is not given here.

How the values were obtained:
PC-12 [1] = assay: Neuroprotective activity against CoCl2-induced cytotoxicity in rat PC12 cells assessed as increase in cell viability at 1 uM pretreated with CoCl2 for 8 hrs followed by incubation with drug and measured after 24 hrs by MTT assay; type: functional, cell-based
PC-12 [2] = assay: Neuroprotective activity against CoCl2-induced cytotoxicity in rat PC12 cells assessed as increase in cell viability pretreated with CoCl2 for 8 hrs followed by incubation with drug and measured after 24 hrs by MTT assay relative to control; type: functional
[3] = target: T1, Amine oxidase [flavin-containing] B (Homo sapiens, UniProt P27338); assay: Inhibition of human recombinant MAO-B expressed in baculovirus infected BTI cells assessed as inhibition of 4-hydroxyquinoline formation using kynuramine as substrate preincubated with enzyme for 10 mins followed by addition of substrate and measured after 15 mins by fluorescence spectrophotometry relative to control; conditions: 0.25 h, time 25 min, read-out: Imax
T1 sequence (P27338 whole entry): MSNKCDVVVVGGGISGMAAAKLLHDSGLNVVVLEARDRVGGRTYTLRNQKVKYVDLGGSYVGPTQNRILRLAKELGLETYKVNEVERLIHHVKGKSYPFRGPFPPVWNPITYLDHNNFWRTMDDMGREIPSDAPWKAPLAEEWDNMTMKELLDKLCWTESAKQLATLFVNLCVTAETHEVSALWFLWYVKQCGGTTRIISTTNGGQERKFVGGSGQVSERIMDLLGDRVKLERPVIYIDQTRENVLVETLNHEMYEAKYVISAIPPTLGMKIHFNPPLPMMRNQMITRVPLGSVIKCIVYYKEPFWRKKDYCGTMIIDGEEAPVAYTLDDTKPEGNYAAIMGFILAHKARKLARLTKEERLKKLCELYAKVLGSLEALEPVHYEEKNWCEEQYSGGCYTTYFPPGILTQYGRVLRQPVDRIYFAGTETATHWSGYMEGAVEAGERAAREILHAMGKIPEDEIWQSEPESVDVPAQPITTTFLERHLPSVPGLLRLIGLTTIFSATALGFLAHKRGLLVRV

[4] = n-Octanol/saturated water patition coefficient, logP of the compound at 0.05 mg/ml incubated for 24 hrs by HPLC analysis; type: physicochemical
[5] = target: T1, Amine oxidase [flavin-containing] B; assay: (§1) Inhibition of human recombinant MAO-B expressed in baculovirus infected BTI cells assessed as inhibition of 4-hydroxyquinoline formation using kynuramine as substrate preincubated with enzyme for 10 mins followed by addition of substrate and measured after 15 mins by fluorescence spectrophotometry
PC-12 [6] = assay: Neuroprotective activity against CoCl2-induced cytotoxicity in rat PC12 cells assessed as increase in cell viability pretreated with CoCl2 for 8 hrs followed by incubation with drug and measured after 24 hrs by MTT assay; type: functional, cell-based
[7] = target: T1, Amine oxidase [flavin-containing] B; assay: as §1, with “Competitive inhibition” for “Inhibition”, “using varying concentration of” for “using”, “Lineweaver-Burk plot analysis” for “fluorescence spectrophotometry”
Rattus norvegicus [8] = assay: Neuroprotective activity against middle cerebral artery occlusion-induced ischemia-reperfusion injury Sprague-Dawley rat model assessed as decrease in cerebral infarct volume at 12.5 to 50 mg/kg/day, ip administered for 2 days by magnetic resonance imaging analysis; type: functional, organism-based; conditions: dose 12.5-50 mg/kg/day, time 2.0 day
Rattus norvegicus [9] = assay: Inhibition of mitochondrial pathway of apoptosis in damaged cerebral hemisphere of middle cerebral artery occlusion-induced ischemia-reperfusion injury Sprague-Dawley rat model assessed as increase in ratio of Bcl-2 to Bax at 25 mg/kg/day, ip administered for 2 days by western blot analysis; type: functional, organism-based; conditions: time 2.0 day
Rattus norvegicus [10] = assay: (§2) Inhibition of mitochondrial pathway of apoptosis in damaged cerebral hemisphere of middle cerebral artery occlusion-induced ischemia-reperfusion injury Sprague-Dawley rat model assessed as increase in NeuN protein expression at 25 mg/kg/day, ip administered for 2 days by western blot analysis; type: functional, organism-based; conditions: time 2.0 day
Rattus norvegicus [11] = assay: Neuroprotective activity against middle cerebral artery occlusion-induced ischemia-reperfusion injury Sprague-Dawley rat model assessed as decrease in neurological deficit score administered ip for 2 days; type: functional, organism-based; conditions: dose 12.5-50 mg/kg/day, time 2.0 day
Rattus norvegicus [12] = assay: Ex vivo inhibition of MAO activity in infarcted cerebral hemisphere of middle cerebral artery occlusion-induced ischemia-reperfusion injury Sprague-Dawley rat model assessed as inhibition of 4-hydroxyquinoline formation using kynuramine as substrate at 25 mg/kg/day, ip for 2 days by fluorescence spectrophotometry; type: functional, organism-based; conditions: time 2.0 day
Rattus norvegicus [13] = assay: as §2, with “decrease” for “increase”, “complement C3” for “NeuN”; type: functional, organism-based; conditions: time 2.0 day

SMILES | Activity (PC-12 [1]) | other results
OC[C@H]1O[C@H](OCCc2ccc(O)cc2)[C@H](O)[C@@H](O)[C@@H]1O | inactive | –
Cc1cccc(C(=O)Oc2ccc(CCO[C@@H]3O[C@H](CO)[C@@H](O)[C@H](O)[C@H]3O)cc2)c1 | Active | –
O=C(Oc1ccc(CCO[C@@H]2O[C@H](CO)[C@@H](O)[C@H](O)[C@H]2O)cc1)c1cccc(F)c1 | Active | –
OC[C@H]1O[C@@H](OCCc2ccc(O)cc2)[C@H](O)[C@@H](O)[C@@H]1O [SALIDROSIDE] | Active | Emax (PC-12 [2]): 27%; Emax [3]: 52%; logP ([4]; octanol/water, 24 h): -0.89; IC50 [5]: 810 nM; EC50 (PC-12 [6]): 300 nM; Ki [7]: 920 nM
CCCc1ccc(C(=O)Oc2ccc(CCO[C@@H]3O[C@H](CO)[C@@H](O)[C@H](O)[C@H]3O)cc2)cc1 | Active | –
O=C(Oc1ccc(CCO[C@@H]2O[C@H](CO)[C@@H](O)[C@H](O)[C@H]2O)cc1)c1ccc2ccccc2c1 | inactive | –
O=C(Oc1ccc(CCO[C@@H]2O[C@H](CO)[C@@H](O)[C@H](O)[C@H]2O)cc1)c1ccc(CCl)cc1 | inactive | –
C=CC(=O)Oc1ccc(CCO[C@@H]2O[C@H](CO)[C@@H](O)[C@H](O)[C@H]2O)cc1 | Active | –
C/C=C/C(=O)Oc1ccc(CCO[C@@H]2O[C@H](CO)[C@@H](O)[C@H](O)[C@H]2O)cc1 | Active | –
O=C(Oc1ccc(CCO[C@@H]2O[C@H](CO)[C@@H](O)[C@H](O)[C@H]2O)cc1)c1c(Cl)cccc1Cl | inactive | –
O=C(Oc1ccc(CCO[C@@H]2O[C@H](CO)[C@@H](O)[C@H](O)[C@H]2O)cc1)c1cccc(Cl)c1 | inactive | –
CC(=O)OC[C@H]1O[C@@H](OCCc2ccc(O)cc2)[C@H](O)[C@@H](O)[C@@H]1O | inactive | –
O=C(OC[C@H]1O[C@@H](OCCc2ccc(O)cc2)[C@H](O)[C@@H](O)[C@@H]1O)c1ccccc1 | inactive | –
CC(=O)OC[C@H]1O[C@@H](OCCc2ccc(O)cc2)[C@H](O)[C@@H](OC(C)=O)[C@@H]1O | inactive | –
O=C(Oc1ccc(CCO[C@@H]2O[C@H](CO)[C@@H](O)[C@H](O)[C@H]2O)cc1)c1cccc(Cl)c1Cl | inactive | –
O=C(Oc1ccc(CCO[C@@H]2O[C@H](CO)[C@@H](O)[C@H](O)[C@H]2O)cc1)c1ccc(Cl)c(Cl)c1 | inactive | –
CCc1ccc(C(=O)Oc2ccc(CCO[C@@H]3O[C@H](CO)[C@@H](O)[C@H](O)[C@H]3O)cc2)cc1 | Active | –
Cc1ccc(C(=O)Oc2ccc(CCO[C@@H]3O[C@H](CO)[C@@H](O)[C@H](O)[C@H]3O)cc2)cc1 | Active | –
Cc1ccccc1C(=O)Oc1ccc(CCO[C@@H]2O[C@H](CO)[C@@H](O)[C@H](O)[C@H]2O)cc1 | Active | –
COc1ccc(C(=O)Oc2ccc(CCO[C@@H]3O[C@H](CO)[C@@H](O)[C@H](O)[C@H]3O)cc2)cc1 | Active | –
CCCCCCC(=O)Oc1ccc(CCO[C@@H]2O[C@H](CO)[C@@H](O)[C@H](O)[C@H]2O)cc1 | Active | –
O=C(Oc1ccc(CCO[C@@H]2O[C@H](CO)[C@@H](O)[C@H](O)[C@H]2O)cc1)C1CCCCC1 | Active | –
CC(=O)Oc1ccc(CCO[C@@H]2O[C@H](CO)[C@@H](O)[C@H](O)[C@H]2O)cc1 | Active | –
OC[C@H]1O[C@@H](O)[C@H](O)[C@@H](O)[C@@H]1O | inactive | –
O=C(/C=C/c1ccccc1)Oc1ccc(CCO[C@@H]2O[C@H](CO)[C@@H](O)[C@H](O)[C@H]2O)cc1 | Active | –
O=C(Oc1ccc(CCO[C@@H]2O[C@H](CO)[C@@H](O)[C@H](O)[C@H]2O)cc1)c1ccccc1 | Active | Activity (Rattus norvegicus [8]): Active; inhibition (Rattus norvegicus [9]): Active; Emax (PC-12 [2]): 42%; inhibition (Rattus norvegicus [10]): Active; Emax [3]: 73.6%; logP at 24 h ([4]; n-octanol/saturated water): 1.44; Activity (Rattus norvegicus [11]): Dose-dependent effect; IC50 [5]: 80 nM; inhibition (Rattus norvegicus [12]): Active; EC50 (PC-12 [6]): 38 nM; inhibition (Rattus norvegicus [13]): Active; Ki [7]: 41 nM
O=C(Oc1ccc(CCO[C@@H]2O[C@H](CO)[C@@H](O)[C@H](O)[C@H]2O)cc1)c1ccc(C(F)(F)F)cc1 | Active | –
O=S(=O)(Oc1ccc(CCO[C@@H]2O[C@H](CO)[C@@H](O)[C@H](O)[C@H]2O)cc1)c1ccccc1 | inactive | –
O=C(Oc1ccc(CCO[C@@H]2O[C@H](CO)[C@@H](O)[C@H](O)[C@H]2O)cc1)c1cccc(CCl)c1 | inactive | –
OCCc1ccc(O)cc1 | inactive | –
